The molecules below were run on R. microplus kinin receptor (assay: High-throughput dual-addition calcium fluorescence screen on BMLK3 cells). Settings: compound 2 μmol L^−1, 5 min, then FFFSWGa 500 nmol L^−1.
Assay type: cell-based, Rhipicephalus microplus
With `CC(=O)c1cc(C(=O)N[C@H](C)c2nc(-c3cccnc3)n[nH]2)cs1` [SACC-0007370] the “antagonist Io (%)” value was 60%.
For `Cc1cc2ncn(CCCCSc3ccccc3)c2cc1C` [SACC-0025692], the “antagonist Io (%)” value was 42%.
`Cc1oc(S(=O)(=O)N2CCOCC2)cc1C(=O)Nc1ccc(F)cc1` [SACC-0026188] was tested, and the “antagonist Io (%)” value was 67%.
For `C=C(NNC(=S)Nc1c(C)cccc1C)c1cc2ccccc2o1` [SACC-0037245], the “antagonist Io (%)” value was 63%.
With `Cc1cccc(NC(=O)c2c(F)c(F)c(F)c(F)c2F)n1` [SACC-0037442] the “antagonist Io (%)” value was 52%.
For `CCCC1=CC(=C2NNC(C)=C2c2ccc(C(=O)OCC)o2)C(O)=CC1=O` [SACC-0048694], the “antagonist Io (%)” value was 65%.
In the case of `CCCc1cc(-c2cc(O)n3nc(C)c(CC)c3n2)no1` [SACC-0048722], the “antagonist Io (%)” value is reported as 56%.
For `C=CCn1cnnc1SCC1CC1(Cl)Cl` (stereo not drawn) [SACC-0063031], the “antagonist Io (%)” value was 80%.
In the case of `O=C(CSC1=NCCS1)c1ccc(Cl)cc1` [SACC-0064624], the “antagonist Io (%)” value is reported as 76%.

What follows are molecules tested against recombinant tick kinin receptor (BMLK3) (Rhipicephalus microplus, UniProt Q9NHA4) (assay: Dose-response dual-addition calcium fluorescence assay on BMLK3 cells). Settings: Table 3.
Chain of recombinant tick kinin receptor (BMLK3) (Q9NHA4 entry or part of it): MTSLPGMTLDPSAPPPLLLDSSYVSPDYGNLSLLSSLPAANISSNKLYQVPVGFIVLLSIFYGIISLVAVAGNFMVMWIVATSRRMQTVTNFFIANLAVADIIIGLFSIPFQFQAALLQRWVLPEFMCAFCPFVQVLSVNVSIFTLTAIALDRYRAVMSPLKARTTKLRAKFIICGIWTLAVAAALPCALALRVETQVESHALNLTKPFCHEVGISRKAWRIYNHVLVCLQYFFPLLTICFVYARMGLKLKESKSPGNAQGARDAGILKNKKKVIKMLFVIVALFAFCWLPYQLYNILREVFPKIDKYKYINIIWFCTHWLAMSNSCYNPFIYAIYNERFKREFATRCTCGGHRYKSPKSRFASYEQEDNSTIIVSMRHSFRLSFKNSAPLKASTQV
Assay type: cell-based
For `CC(=O)c1cc(C(=O)N[C@H](C)c2nc(-c3cccnc3)n[nH]2)cs1` [SACC-0007370], the “validation mark in dose-response assay” value was “*** (molecules which are either off-target or of low activity (<25 μM))”.
With `Cc1cc2ncn(CCCCSc3ccccc3)c2cc1C` [SACC-0025692] the “validation mark in dose-response assay” value was “*** (molecules which are either off-target or of low activity (<25 μM))”.
`Cc1oc(S(=O)(=O)N2CCOCC2)cc1C(=O)Nc1ccc(F)cc1` [SACC-0026188] was tested, and the “validation mark in dose-response assay” value was “*** (molecules which are either off-target or of low activity (<25 μM))”.
For `C=C(NNC(=S)Nc1c(C)cccc1C)c1cc2ccccc2o1` [SACC-0037245], the “validation mark in dose-response assay” value was “*** (molecules which are either off-target or of low activity (<25 μM))”.
For `Cc1cccc(NC(=O)c2c(F)c(F)c(F)c(F)c2F)n1` [SACC-0037442], the “validation mark in dose-response assay” value was “*** (molecules which are either off-target or of low activity (<25 μM))”.
In the case of `CCCC1=CC(=C2NNC(C)=C2c2ccc(C(=O)OCC)o2)C(O)=CC1=O` [SACC-0048694], the “validation mark in dose-response assay” value is reported as “*** (molecules which are either off-target or of low activity (<25 μM))”.
With `CCCc1cc(-c2cc(O)n3nc(C)c(CC)c3n2)no1` [SACC-0048722] the “validation mark in dose-response assay” value was “*** (molecules which are either off-target or of low activity (<25 μM))”.
With `C=CCn1cnnc1SCC1CC1(Cl)Cl` (stereo not drawn) [SACC-0063031] the “validation mark in dose-response assay” value was “*** (molecules which are either off-target or of low activity (<25 μM))”.
For `O=C(CSC1=NCCS1)c1ccc(Cl)cc1` [SACC-0064624], the “validation mark in dose-response assay” value was “*** (molecules which are either off-target or of low activity (<25 μM))”.

Same assay, conditions: first addition, 20 concentrations 28 nM-25 μM; read-out: BMLK3 EC50
Molecule `CC(=O)c1cc(C(=O)N[C@H](C)c2nc(-c3cccnc3)n[nH]2)cs1` [SACC-0007370] has an EC50 of 1.78 µM.
For `Cc1cc2ncn(CCCCSc3ccccc3)c2cc1C` [SACC-0025692], the EC50 was greater than 25 µM.
`Cc1oc(S(=O)(=O)N2CCOCC2)cc1C(=O)Nc1ccc(F)cc1` [SACC-0026188] gave an EC50 of less than 0.0285 µM.
For `C=C(NNC(=S)Nc1c(C)cccc1C)c1cc2ccccc2o1` [SACC-0037245], the EC50 was 5.78 µM.
`Cc1cccc(NC(=O)c2c(F)c(F)c(F)c(F)c2F)n1` [SACC-0037442] showed an EC50 of 7.77 µM.
`CCCC1=CC(=C2NNC(C)=C2c2ccc(C(=O)OCC)o2)C(O)=CC1=O` [SACC-0048694] showed an EC50 of 0.281 µM.
Molecule `CCCc1cc(-c2cc(O)n3nc(C)c(CC)c3n2)no1` [SACC-0048722] has an EC50 of 4.17 µM.
Work on `C=CCn1cnnc1SCC1CC1(Cl)Cl` (stereo not drawn) [SACC-0063031] yielded an EC50 of 0.246 µM.
With `O=C(CSC1=NCCS1)c1ccc(Cl)cc1` [SACC-0064624] the EC50 was 0.504 µM.

Same assay, conditions: second addition Rhimi-K-1 1 μmol L^−1; read-out: BMLK3 IC50
`CC(=O)c1cc(C(=O)N[C@H](C)c2nc(-c3cccnc3)n[nH]2)cs1` [SACC-0007370] was tested, and the IC50 was 1.42 µM.
`Cc1cc2ncn(CCCCSc3ccccc3)c2cc1C` [SACC-0025692] showed an IC50 of 0.765 µM.
Work on `Cc1oc(S(=O)(=O)N2CCOCC2)cc1C(=O)Nc1ccc(F)cc1` [SACC-0026188] yielded an IC50 of 0.225 µM.
Work on `C=C(NNC(=S)Nc1c(C)cccc1C)c1cc2ccccc2o1` [SACC-0037245] yielded an IC50 of 4.43 µM.
`Cc1cccc(NC(=O)c2c(F)c(F)c(F)c(F)c2F)n1` [SACC-0037442] showed an IC50 of less than 0.0285 µM.
In the case of `CCCC1=CC(=C2NNC(C)=C2c2ccc(C(=O)OCC)o2)C(O)=CC1=O` [SACC-0048694], the IC50 is reported as greater than 25 µM.
In the case of `CCCc1cc(-c2cc(O)n3nc(C)c(CC)c3n2)no1` [SACC-0048722], the IC50 is reported as greater than 25 µM.
`C=CCn1cnnc1SCC1CC1(Cl)Cl` (stereo not drawn) [SACC-0063031] gave an IC50 of 0.242 µM.
Molecule `O=C(CSC1=NCCS1)c1ccc(Cl)cc1` [SACC-0064624] has an IC50 of 0.21 µM.

The molecules below were run on vector-only (V/O) CHO-K1 cells (assay: Dose-response dual-addition calcium fluorescence assay on vector-only cells). Settings: V/O cells, first addition.
Assay type: cell-based
Molecule `CC(=O)c1cc(C(=O)N[C@H](C)c2nc(-c3cccnc3)n[nH]2)cs1` [SACC-0007370] has an EC50 of less than 0.0285 µM.
Work on `Cc1cc2ncn(CCCCSc3ccccc3)c2cc1C` [SACC-0025692] yielded an EC50 of 9.54 µM.
Molecule `Cc1oc(S(=O)(=O)N2CCOCC2)cc1C(=O)Nc1ccc(F)cc1` [SACC-0026188] has an EC50 of 0.154 µM.
`C=C(NNC(=S)Nc1c(C)cccc1C)c1cc2ccccc2o1` [SACC-0037245] showed an EC50 of less than 0.0285 µM.
In the case of `Cc1cccc(NC(=O)c2c(F)c(F)c(F)c(F)c2F)n1` [SACC-0037442], the EC50 is reported as greater than 25 µM.
For `CCCC1=CC(=C2NNC(C)=C2c2ccc(C(=O)OCC)o2)C(O)=CC1=O` [SACC-0048694], the EC50 was 6.87 µM.
`CCCc1cc(-c2cc(O)n3nc(C)c(CC)c3n2)no1` [SACC-0048722] was tested, and the EC50 was less than 0.0285 µM.
For `C=CCn1cnnc1SCC1CC1(Cl)Cl` (stereo not drawn) [SACC-0063031], the EC50 was 17 µM.
Work on `O=C(CSC1=NCCS1)c1ccc(Cl)cc1` [SACC-0064624] yielded an EC50 greater than 25 µM.

Same assay, conditions: V/O cells, second addition Rhimi-K-1 1 μmol L^−1; read-out: V/O antagonist IC50
`CC(=O)c1cc(C(=O)N[C@H](C)c2nc(-c3cccnc3)n[nH]2)cs1` [SACC-0007370] was tested, and the IC50 was greater than 25 µM.
With `Cc1cc2ncn(CCCCSc3ccccc3)c2cc1C` [SACC-0025692] the IC50 was 0.112 µM.
With `Cc1oc(S(=O)(=O)N2CCOCC2)cc1C(=O)Nc1ccc(F)cc1` [SACC-0026188] the IC50 was greater than 25 µM.
`C=C(NNC(=S)Nc1c(C)cccc1C)c1cc2ccccc2o1` [SACC-0037245] was tested, and the IC50 was 0.605 µM.
Molecule `Cc1cccc(NC(=O)c2c(F)c(F)c(F)c(F)c2F)n1` [SACC-0037442] has an IC50 of 7.18 µM.
`CCCC1=CC(=C2NNC(C)=C2c2ccc(C(=O)OCC)o2)C(O)=CC1=O` [SACC-0048694] showed an IC50 of 17.5 µM.
Work on `CCCc1cc(-c2cc(O)n3nc(C)c(CC)c3n2)no1` [SACC-0048722] yielded an IC50 of 4.32 µM.
`C=CCn1cnnc1SCC1CC1(Cl)Cl` (stereo not drawn) [SACC-0063031] showed an IC50 of 4.45 µM.
Work on `O=C(CSC1=NCCS1)c1ccc(Cl)cc1` [SACC-0064624] yielded an IC50 greater than 25 µM.
